Reference: patent publication US12478620B2, “Cyano-substituted cyclic hydrazine derivative and application thereof” (E-nitiate Biopharmaceuticals (Hangzhou) Co., Ltd, priority 2019, dated 2025)

Legend:
[1] = target: JAK2 (Homo sapiens, UniProt O60674); test: JAK kinase inhibitor activity detection (ULight-JAK-1 substrate, Eu-labeled anti-phosphotyrosine antibody), JAK2; assay type: biochemical; settings: JAK2 0.125 nM, substrate 50 nM, ATP 10 μM, 1 h room temperature
Procedure: (§1) Activity Detection of Small Molecule Inhibitors of JAK Kinase
(§2) • (1) kinase reaction buffer • Prepare the kinase reaction buffer with the following components: 50 mM HEPES, pH 7.5, 1 mM EGTA, 10 mM MgCl2, 2 mM DTT, 0.01% Tween20 • (2) 1× detection buffer • To prepare detection buffer, dilute 10× detection buffer to 1× with deionized water 9:1 • (3) 4× kinase solution • Dilute JAK to 4× final concentration by JAK reaction buffer (JAK1: 40 nM, JAK2: 0.5 nM) • (4) 4× substrate solution • Dilute ULight™-JAK-1 (Tyr1023) substrate to 200 nM by kinase reaction buffer (final concentration: 50 nM) • (5) 4×ATP solution • Dilute ATP to 4× final concentration by kinase reaction buffer (JAK1: 160 μM, JAK2: 40 μM) • (6) 4× compound testing solution • DMSO dissolves the testing compound into 10 mM stock solution, then prepared to the desired concentration with 3-fold serial dilution, and 10 concentration points were set for each compound. Besides, the final concentration range of the testing compound is: 10 μM-0.5 nM • (7) 4× enzyme reaction termination liquid • 1× test buffer dissolves EDTA to 40 mM (EDTA final concentration: 10 mM) • (8) 4× antibody detection solution • 1× test buffer dilutes Eu labeled antibody (anti-phosphotyrosine (PT66)) to 8 nM (antibody final concentration: 2 nM) 2. Experimental Process • (1) Successively add 2.5 μL 4×JAK solution, and 2.5 μL of diluted 4× test compound solution in different concentrations to the 384 microporous plate, and set 2 multi-wells for each concentration. Meanwhile, set enzyme solution blank control group and negative control group (DMSO group). • (2) Shake the 384-hole plate, mix enzymes and compounds, centrifuge at 1000 rpm for 1 minute, and incubate at room temperature for 60 minutes • (3) Add 2.5 μL of 4× substrate solution to a 384-hole plate and centrifuge at 1000 rpm for 1 min • (4) Add 2.5 μL of 4×ATP solution to the 384 multi-well plate and centrifuge at 1000 rpm for 1 minute to initiate the enzyme reaction. • (5) JAK1 reacts at room temperature for 2 h, and JAK2 react at room temperature for 1 h. • (6) The final concentrations of each group of the JAK1 reaction are: JAK1: 10 nM, substrate: 50 nM, ATP: 40 uM, and the final concentration range of the test compound is: 10 μM-0.5 nM • The final concentrations of each group of the JAK2 reaction are: JAK2: 0.125 nM, substrate: 50 nM, ATP: 10 μM, and the final concentration range of test compounds is: 10 μM-0.5 nM • (7) After the enzyme reaction, add 5 μL of 4× enzyme reaction stop solution to each well of the 384-well plate with 1000 rpm, centrifuge for 1 minute, and incubate at room temperature for 5 min. • (8) Add 5 μL of 4× detection antibody solution to each well of a 384-well plate (final concentration of detection antibody is 2 nM) with 1000 rpm, centrifuge for 1 minute, and incubate at room temperature for 1 h. • (10) After antibody incubation, measure the signal value of each well on an Envision plate reader 3. Data Analysis • (1) Taking the enzyme solution blank control group as 100% inhibition rate and the negative control group (DMSO group) as 0% inhibition rate, calculate the percentage inhibition rate corresponding to each concentration of the tested compounds • (2) In GraphPad Prism software, nonlinear regression analysis is performed on the concentration logarithm of the test compound and the corresponding percentage inhibition rate to obtain the half-inhibitory concentration (IC50) of the test compound.

[2] = target: JAK1 (Homo sapiens, UniProt P23458); test: JAK kinase inhibitor activity detection (ULight-JAK-1 substrate, Eu-labeled anti-phosphotyrosine antibody), JAK1; assay type: biochemical; settings: JAK1 10 nM, substrate 50 nM, ATP 40 uM, 2 h room temperature
JAK1, sequence (P23458 whole entry, species assumed): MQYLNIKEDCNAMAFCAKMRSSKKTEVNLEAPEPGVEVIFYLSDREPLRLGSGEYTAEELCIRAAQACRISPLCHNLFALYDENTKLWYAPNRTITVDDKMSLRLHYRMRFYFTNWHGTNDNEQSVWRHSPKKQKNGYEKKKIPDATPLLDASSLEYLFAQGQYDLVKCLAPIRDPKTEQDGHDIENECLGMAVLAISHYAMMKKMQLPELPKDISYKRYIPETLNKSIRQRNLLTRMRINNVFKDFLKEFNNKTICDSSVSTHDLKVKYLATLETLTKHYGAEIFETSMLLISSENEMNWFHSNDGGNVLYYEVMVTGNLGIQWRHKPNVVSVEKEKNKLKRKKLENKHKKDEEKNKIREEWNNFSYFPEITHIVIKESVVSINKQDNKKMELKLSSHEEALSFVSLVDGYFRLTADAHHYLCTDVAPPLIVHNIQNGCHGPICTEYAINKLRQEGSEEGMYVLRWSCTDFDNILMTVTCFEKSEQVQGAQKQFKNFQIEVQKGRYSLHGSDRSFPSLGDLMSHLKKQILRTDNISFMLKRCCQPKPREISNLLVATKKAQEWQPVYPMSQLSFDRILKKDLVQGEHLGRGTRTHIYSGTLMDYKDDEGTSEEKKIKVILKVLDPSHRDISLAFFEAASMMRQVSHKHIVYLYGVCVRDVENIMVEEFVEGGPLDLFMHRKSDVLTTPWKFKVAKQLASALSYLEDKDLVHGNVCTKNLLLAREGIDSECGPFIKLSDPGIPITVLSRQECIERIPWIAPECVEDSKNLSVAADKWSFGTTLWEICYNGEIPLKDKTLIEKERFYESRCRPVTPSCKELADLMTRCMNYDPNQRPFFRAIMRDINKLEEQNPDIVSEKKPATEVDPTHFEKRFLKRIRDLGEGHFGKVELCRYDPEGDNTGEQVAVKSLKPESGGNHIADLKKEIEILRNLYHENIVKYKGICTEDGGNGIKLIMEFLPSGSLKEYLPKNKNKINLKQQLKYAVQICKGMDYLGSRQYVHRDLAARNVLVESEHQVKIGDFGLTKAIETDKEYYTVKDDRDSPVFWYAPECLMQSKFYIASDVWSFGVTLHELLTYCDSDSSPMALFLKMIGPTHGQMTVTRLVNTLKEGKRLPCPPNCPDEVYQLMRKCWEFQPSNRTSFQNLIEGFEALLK
Procedure: as §1, §2

JAK2, sequence (O60674 whole entry, species assumed): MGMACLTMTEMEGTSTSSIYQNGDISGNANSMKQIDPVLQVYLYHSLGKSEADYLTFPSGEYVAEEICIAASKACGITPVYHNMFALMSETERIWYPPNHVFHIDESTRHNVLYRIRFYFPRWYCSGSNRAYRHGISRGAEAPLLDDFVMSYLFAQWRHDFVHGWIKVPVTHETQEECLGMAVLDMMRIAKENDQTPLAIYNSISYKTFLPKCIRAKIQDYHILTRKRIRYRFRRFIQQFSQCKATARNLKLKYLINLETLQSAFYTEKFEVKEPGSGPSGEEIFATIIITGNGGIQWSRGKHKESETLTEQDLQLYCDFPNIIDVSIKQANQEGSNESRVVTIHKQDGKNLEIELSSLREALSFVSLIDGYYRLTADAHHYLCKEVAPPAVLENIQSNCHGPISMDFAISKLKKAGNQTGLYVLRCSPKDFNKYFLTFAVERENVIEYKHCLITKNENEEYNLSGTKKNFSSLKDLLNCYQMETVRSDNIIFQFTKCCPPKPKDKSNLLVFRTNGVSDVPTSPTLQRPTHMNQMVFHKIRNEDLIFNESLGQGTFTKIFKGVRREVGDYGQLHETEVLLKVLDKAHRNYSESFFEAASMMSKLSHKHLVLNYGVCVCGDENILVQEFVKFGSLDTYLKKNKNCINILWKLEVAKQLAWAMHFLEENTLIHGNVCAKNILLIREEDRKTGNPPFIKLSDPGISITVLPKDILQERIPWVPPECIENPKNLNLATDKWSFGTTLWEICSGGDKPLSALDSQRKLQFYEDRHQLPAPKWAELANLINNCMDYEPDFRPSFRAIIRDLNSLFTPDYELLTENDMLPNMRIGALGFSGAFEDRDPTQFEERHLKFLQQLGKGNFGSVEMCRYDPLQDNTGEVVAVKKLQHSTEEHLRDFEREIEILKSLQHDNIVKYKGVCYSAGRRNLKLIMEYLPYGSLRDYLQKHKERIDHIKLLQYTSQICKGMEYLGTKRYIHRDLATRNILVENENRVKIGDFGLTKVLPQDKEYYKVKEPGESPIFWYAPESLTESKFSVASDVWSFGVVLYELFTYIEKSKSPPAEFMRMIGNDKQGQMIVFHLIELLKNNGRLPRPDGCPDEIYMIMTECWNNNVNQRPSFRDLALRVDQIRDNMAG

Row | SMILES | IC50 [1] | IC50 [2]
1 | Cc1nc2cnc3[nH]ccc3c2n1N1CCC(CC#N)CC1 [Example 3, 2-(1-(methylimidazo[4,5-d]pyrrolo[2,3-b]pyridine-1(6H)-yl)piperidin-4-yl)acetonitrile] | 0.28 nM | 0.17 nM
2 | N#CCC1CCN(n2c(N)nc3cnc4[nH]ccc4c32)CC1 [Example 9, 2-(1-(2-aminoimidazo[4,5-d]pyrrolo[2,3-b]pyridine-1(6H)-yl)piperidin-4-yl)acetonitrile] | 0.7 nM | 0.14 nM
3 | CC[C@@H]1CN(C(=O)CC#N)CN1n1cnc2cnc3[nH]ccc3c21 [Example 32, (R)-3-(4-ethyl-3-(imidazo[4,5-d]pyrrolo[2,3-b]pyridine-1(6H)-yl)imidazoline-1-yl)-3-oxopropionitrile] | 15.3 nM | 6.8 nM
4 | N#CC1CC12CCN(n1cnc3cnc4[nH]ccc4c31)CC2 (centres unmarked) [Example 12, 6-(imidazo[4,5-d]pyrrolo[2,3-b]pyridine-1(6H)-yl)-6-azaspiro[2.5]octane-1-carbonitrile] | 3.28 nM | 1.77 nM
5 | N#CCNC1CCN(n2cnc3cnc4[nH]ccc4c32)C1 (centres unmarked) [Example 34, 2-((1-(imidazo[4,5-d]pyrrolo[2,3-b]pyridine-1(6H)-yl)pyrrolidine-3-yl)amino)acetonitrile] | 51.7 nM | 73.8 nM
6 | CC(C)(C#N)C1CCN(n2cnc3cnc4[nH]ccc4c32)CC1 [Example 14, 2-(1-(imidazo[4,5-d]pyrrolo[2,3-b]pyridine-1(6H)-yl)piperidine-4-yl)-2-methyl propionitrile] | 7.5 nM | 13.5 nM
7 | N#CCC1(O)CCN(n2cnc3cnc4[nH]ccc4c32)CC1 [Example 19, 2-(4-hydroxy-1-(imidazo[4,5-d]pyrrolo[2,3-b]pyridine-1(6H)-yl)-piperidine-4-yl)acetonitrile] | 6.01 nM | 2.37 nM
8 | N#CC1CCN(n2cnc3cnc4[nH]ccc4c32)CC1 [Example 1, 1-(imidazo[4,5-d]pyrrolo[2,3-b]pyridine-1(6H)-yl)piperidine-4-carbonitrile] | 70.9 nM | 23.8 nM
9 | C[C@@H](O)c1nc2cnc3[nH]ccc3c2n1N1C2CCC1CC(=CC#N)C2 [Example 22, 2-(8-(2-((R)-1-hydroxyethyl)imidazo[4,5-d]pyrrolo[2,3-b]pyridin-1(6H)-yl)-8-azabicyclo[3.2.1]octan-3-ylidene)acetonitrile] | 4.04 nM | 1.6 nM
10 | N#CCC(=O)NC1CCN(n2cnc3cnc4[nH]ccc4c32)C1 (centres unmarked) [Example 33, 2-cyano-N-(1-(imidazo[4,5-d]pyrrolo[2,3-b]pyridine-1(6H)-yl)pyrrolidine-3-yl)acetamide] | 29.1 nM | 11.2 nM
11 | N#CCN1CCN(n2cnc3cnc4[nH]ccc4c32)CC1 [Example 24, 3-(4-(imidazo[4,5-d]pyrrolo[2,3-b]pyridin-1(6H)-yl)piperazin-1-yl)acetonitrile] | 46.6 nM | 7.72 nM
12 | N#CCC(=O)N1CCN(n2cnc3cnc4[nH]ccc4c32)CC1 [Example 26, 3-(4-(imidazo[4,5-d]pyrrorolo[2,3-b]pyridin-1(6H)-yl)piperazin-1-yl)oxypropionitrile] | 151 nM | 41.7 nM
13 | CCC1CN(C(=O)CC#N)CN1n1cnc2cnc3[nH]ccc3c21 (centres unmarked) [Example 28] | 13.1 nM | 3.5 nM
14 | C[C@@H](O)c1nc2cnc3[nH]ccc3c2n1N1CCC(CC#N)CC1 [Example 7, (R)-2-(1-(2-(1-hydroxyethyl)imidazo[4,5-d]pyrrolo[2,3-b]pyridine-1(6H)-yl)piperidin-4-yl)acetonitrile] | 4 nM | 0.08 nM
15 | N#CCC(=O)N1CCN(n2cnc3cnc4[nH]ccc4c32)C1 [Example 31, 3-(3-(imidazo[4,5-d]pyrrolo[2,3-b]pyridine-1(6H)-yl)imidazoline-1-yl)-3-oxopropionitrile] | 71.8 nM | 6.9 nM
16 | CCC1CN(CCC#N)CN1n1cnc2cnc3[nH]ccc3c21 (centres unmarked) [Example 29, 3-(4-ethyl-3-(imidazo[4,5-d]pyrrolo[2,3-b]pyridine-1(6H)-yl)imidazolidine-1-yl)propionitrile] | 27.5 nM | 13.9 nM
17 | C[C@H](O)c1nc2cnc3[nH]ccc3c2n1N1CCC(CC#N)CC1 [Example 8, (S)-2-(1-(2-(1-hydroxyethyl)imidazo[4,5-d]pyrrolo[2,3-b]pyridine-1(6H)-yl)piperidin-4-yl)acetonitrile] | 5 nM | 1.5 nM
18 | C[C@@H](O)c1nc2cnc3[nH]ccc3c2n1N1CCC2(CC1)CC2C#N (stereo partly drawn) [Example 13, 6-(2-((R)-1-hydroxyethyl)imidazo[4,5-d]pyrrolo[2,3-b]pyridine-1(6H)-yl)-6-azaspiro[2.5]octane-1-carbonitrile] | 56.7 nM | 16 nM
19 | CC1CN(C(=O)CC#N)CN1n1cnc2cnc3[nH]ccc3c21 (centres unmarked) [Example 30, 3-(4-methyl-3-(imidazo[4,5-d]pyrrolo[2,3-b]pyridine-1(6H)-yl)imidazoline-1-yl)-3-Oxopropionitrile] | 28.1 nM | 2.8 nM
20 | N#CCC1CCN(n2c(CCO)nc3cnc4[nH]ccc4c32)CC1 [Example 6, 2-(1-(2-(2-hydroxyethyl)imidazo[4,5-d]pyrrolo[2,3-b]pyridine-1(6H)-yl)piperidin-4-yl)acetonitrile] | 3.89 nM | 0.66 nM
21 | CS(=O)(=O)NCc1nc2cnc3[nH]ccc3c2n1N1CCC(CC#N)CC1 [Example 10, N-((1-(4-(cyanomethyl)piperidin-1-yl)-1,6-dihydroimidazole[4,5-d]pyrrolo[2,3-b]pyridine-2-yl)methyl)methanesulfonamide] | 6.1 nM | 0.8 nM
22 | N#CCC1CCN(n2c(CO)nc3cnc4[nH]ccc4c32)CC1 [Example 5, 2-(1-(2-(hydroxymethyl)imidazo[4,5-d]pyrrolo[2,3-b]pyridine-1(6H)-yl)piperidin-4-yl)acetonitrile] | 1.45 nM | 0.28 nM
23 | C[C@@H](O)c1nc2cnc3[nH]ccc3c2n1N1CCC(C(C)(C)C#N)CC1 [Example 15, (R)-2-(1-(2-(1-hydroxyethyl)imidazo[4,5-d]pyrrolo[2,3-b]pyridine-1(6H)-yl)piperidine-4-yl)-2-methyl propionitrile] | 16.1 nM | 5.14 nM
24 | N#CCCN1CCN(n2cnc3cnc4[nH]ccc4c32)CC1 [Example 25, 3-(4-(imidazo[4,5-d]pyrrolo[2,3-b]pyridin-1(6H)-yl)piperazin-1-yl)propanenitrile] | 5.3 nM | 5.2 nM
25 | CC[C@@H]1C[C@@H](CC#N)CN1n1cnc2cnc3[nH]ccc3c21 [Example 36-1, 2-((3S,5R)-5-ethyl-1-(imidazo[4,5-d]pyrrolo[2,3-b]pyridine-1(6H)-yl)pyrrolidin-3-yl) acetonitrile] | 23.5 nM | 6.8 nM
26 | CC1(CC#N)CCN(n2cnc3cnc4[nH]ccc4c32)CC1 [Example 17, 2-(1-(imidazo[4,5-d]pyrrolo[2,3-b]pyridine-1(6H)-yl)-4-methylpiperidine-4-yl)acetonitrile] | 1.2 nM | 2 nM
27 | CC[C@@H]1C[C@H](C#N)CN1n1cnc2cnc3[nH]ccc3c21 [Example 35, (3S,5R)-5-ethyl-1-(imidazo[4,5-d]pyrrole[2,3-b]pyridine(6H)-yl)pyrrolidine-3-carbonitrile] | 61.3 nM | 9.5 nM
28 | C[C@@H](O)c1nc2cnc3[nH]ccc3c2n1N1CCC(C)(CC#N)CC1 [Example 18, (R)-2-(1-(2-(1-hydroxyethyl)imidazo[4,5-d]pyrrolo[2,3-b]pyridine-1(6H)-yl)-4-methylpiperidine-4-yl)acetonitrile] | 13.8 nM | 6.31 nM
